In ChEMBL document CHEMBL1201862, “PubChem BioAssay data set” (2004):
Active and inactive are the calls of the source.

Legend:
[1] = HPDE-C7 pancreatic duct cell viability loss – fluorescence, HTS (AID 430); type: functional, cell-based; conditions: Homo sapiens
[2] = target: Neurotensin receptor type 1 (Homo sapiens, UniProt P30989); type: functional;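 note: Image-based confirmatory dose-response assay measuring agonist activity at NTR1; NTR1-expressing U2OS osteosarcoma cells imaged for beta-arrestin GFP spot formation; agonist potency where compounds increase beta-arrestin recruitment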
[3] = viability loss of HPDE-C7K cells – cell-based, fluorescence, HTS, primary screen (AID 431); type: functional; conditions: Homo sapiens
[4] = target: Acyl-homoserine lactone acylase PvdQ (Pseudomonas aeruginosa (strain LESB58), UniProt Q9I194); test: PvdQ acylase enzyme activity blockers – biochemical, fluorescence, plate reader and imaging, cherry-picks, dose response (AID 493231)
[5] = target: T1, Eukaryotic translation initiation factor 2-alpha kinase 3 (Homo sapiens, UniProt Q9NZJ5); test: Dose response cell-based high-throughput screening assay to measure PERK inhibition. [Related pubchem assays: 1416 ]; type: functional
T1 sequence (Q9NZJ5 whole entry): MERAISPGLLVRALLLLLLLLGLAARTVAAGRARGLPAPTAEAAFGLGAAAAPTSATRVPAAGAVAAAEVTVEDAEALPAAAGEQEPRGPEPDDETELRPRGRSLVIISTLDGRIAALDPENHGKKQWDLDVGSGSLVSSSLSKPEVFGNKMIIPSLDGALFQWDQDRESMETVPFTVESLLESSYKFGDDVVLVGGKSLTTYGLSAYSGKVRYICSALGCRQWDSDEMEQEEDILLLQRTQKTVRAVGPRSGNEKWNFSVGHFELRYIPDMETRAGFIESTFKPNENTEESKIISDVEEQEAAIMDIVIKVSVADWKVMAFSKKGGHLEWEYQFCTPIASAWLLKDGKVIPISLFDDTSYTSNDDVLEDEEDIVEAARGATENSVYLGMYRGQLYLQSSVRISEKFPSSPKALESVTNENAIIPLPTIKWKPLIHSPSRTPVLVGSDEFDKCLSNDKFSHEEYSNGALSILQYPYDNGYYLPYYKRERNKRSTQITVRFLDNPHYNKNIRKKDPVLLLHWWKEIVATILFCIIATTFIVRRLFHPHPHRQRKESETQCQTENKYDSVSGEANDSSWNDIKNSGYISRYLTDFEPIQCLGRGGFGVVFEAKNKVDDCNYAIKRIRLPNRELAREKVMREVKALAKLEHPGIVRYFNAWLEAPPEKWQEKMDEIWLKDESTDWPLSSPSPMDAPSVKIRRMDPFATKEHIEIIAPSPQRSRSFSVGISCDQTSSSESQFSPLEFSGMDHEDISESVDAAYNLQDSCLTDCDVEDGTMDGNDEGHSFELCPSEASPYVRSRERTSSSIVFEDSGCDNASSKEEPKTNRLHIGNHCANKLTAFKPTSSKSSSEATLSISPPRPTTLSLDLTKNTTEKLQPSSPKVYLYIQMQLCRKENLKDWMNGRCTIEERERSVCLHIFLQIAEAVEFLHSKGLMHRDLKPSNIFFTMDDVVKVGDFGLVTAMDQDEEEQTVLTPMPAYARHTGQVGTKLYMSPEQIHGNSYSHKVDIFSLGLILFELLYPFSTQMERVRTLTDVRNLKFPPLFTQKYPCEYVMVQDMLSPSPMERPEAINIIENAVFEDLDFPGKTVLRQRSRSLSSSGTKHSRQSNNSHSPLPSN

[6] = target: T1, Eukaryotic translation initiation factor 2-alpha kinase 3; test: Counterscreen assay for PERK inhibitors: Dose response cell-based high throughput screening assay to measure inhibition of PERK at 6 hours. [Related pubchem assays: 1522, 1416 ]; type: functional
[7] = target: T2, Alkaline phosphatase, tissue-nonspecific isozyme (Homo sapiens, UniProt P05186)
T2 sequence (P05186 whole entry): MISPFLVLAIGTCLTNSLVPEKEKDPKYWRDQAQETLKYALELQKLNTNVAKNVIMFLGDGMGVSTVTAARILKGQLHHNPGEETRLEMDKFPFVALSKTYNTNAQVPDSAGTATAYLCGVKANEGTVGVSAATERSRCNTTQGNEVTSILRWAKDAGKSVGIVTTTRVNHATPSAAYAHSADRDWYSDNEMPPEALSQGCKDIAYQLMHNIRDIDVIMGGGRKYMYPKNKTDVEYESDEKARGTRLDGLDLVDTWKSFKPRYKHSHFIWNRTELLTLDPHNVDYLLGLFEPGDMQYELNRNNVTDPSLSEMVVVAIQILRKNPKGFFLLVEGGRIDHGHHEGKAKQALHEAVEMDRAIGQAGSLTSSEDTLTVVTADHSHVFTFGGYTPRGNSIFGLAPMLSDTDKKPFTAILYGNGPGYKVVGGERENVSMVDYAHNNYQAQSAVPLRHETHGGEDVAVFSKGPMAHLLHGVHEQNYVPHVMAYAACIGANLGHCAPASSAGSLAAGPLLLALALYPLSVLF

[8] = target: Transitional endoplasmic reticulum ATPase (Homo sapiens, UniProt P55072); test: p97 ATPase inhibitors, dose response, biochemical (AID 1534)
[9] = IC50 of Artemis nuclease activity blockers – biochemical, fluorescence intensity, dose response (AID 720701); type: functional;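 note: Artemis endonuclease enzyme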
[10] = target: FAD-linked sulfhydryl oxidase ALR (Homo sapiens, UniProt P55789); test: ALR-catalysed DTT oxidation blockers – biochemical, H2O2 detection, luminescence, cherry-pick, dose response (AID 493248)
FAD-linked sulfhydryl oxidase ALR, sequence (P55789 whole entry): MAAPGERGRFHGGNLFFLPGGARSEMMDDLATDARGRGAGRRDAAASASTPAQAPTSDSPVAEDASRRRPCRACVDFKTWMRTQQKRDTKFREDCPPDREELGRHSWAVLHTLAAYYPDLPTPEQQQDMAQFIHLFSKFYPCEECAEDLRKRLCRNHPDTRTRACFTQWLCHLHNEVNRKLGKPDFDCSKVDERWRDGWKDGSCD

Streptokinase A = target: T3, Streptokinase A (Streptococcus pyogenes serotype M1, UniProt P10520); test: viability-normalized secreted streptokinase activity reduction – plasminogen activation absorbance, OD405, dose response (AID 1914); type: functional, Streptococcus pyogenes M1 GAS;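 note: secreted streptokinase activity via plasminogen activation per viability signal from cell pellet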
T3 sequence (P10520 whole entry): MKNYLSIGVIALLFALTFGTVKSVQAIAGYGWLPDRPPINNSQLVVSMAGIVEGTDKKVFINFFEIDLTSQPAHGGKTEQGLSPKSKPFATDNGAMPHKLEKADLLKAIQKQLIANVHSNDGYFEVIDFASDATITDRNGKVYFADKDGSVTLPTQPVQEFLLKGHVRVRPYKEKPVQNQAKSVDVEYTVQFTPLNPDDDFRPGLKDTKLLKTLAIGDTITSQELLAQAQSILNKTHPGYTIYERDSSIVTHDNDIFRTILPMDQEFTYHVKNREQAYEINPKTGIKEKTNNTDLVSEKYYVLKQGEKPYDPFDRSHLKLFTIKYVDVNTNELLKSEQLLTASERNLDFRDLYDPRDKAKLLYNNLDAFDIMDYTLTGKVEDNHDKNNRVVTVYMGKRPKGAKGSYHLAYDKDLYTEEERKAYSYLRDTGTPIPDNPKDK

[11] = target: Transitional endoplasmic reticulum ATPase (Homo sapiens, UniProt P55072, C522A); test: C522A mutant p97 ATPase inhibitors, dose response, counter-screen for p97 inhibitor project, biochemical, luminescence (AID 1544)
Streptococcus = test: GAS UMAA2166 growth inhibition – luminescence, BacTiterGlo, counter-screen for streptokinase expression inhibitor project, dose response (AID 1915); type: functional, organism-based;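 note: potency for reduction of bacterial viability or growth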
[12] = test system: Streptococcus sp. 'group A'; test: Streptococcus pyogenes SK(-)GAS viability under kanamycin – luminescence, BacTiterGlo, confirmation, counter-screen for streptokinase expression inhibitor project, dose response (AID 1900); type: functional, organism-based
Nonstructural protein 1 = Nonstructural protein 1 (Influenza A virus, UniProt Q194T2); type: functional, Influenza A virus (A/California/07/2009(H1N1))
[13] = target: Polyadenylate-binding protein 1 (Homo sapiens, UniProt P11940); test: blockers of PABP interaction with poly(A) – biochemical, fluorescence polarization, […] (AID 2014)
[14] = target: Eukaryotic translation initiation factor 4H (Homo sapiens, UniProt Q15056); test: eIF4H binding inhibition – biochemical, uHTS, fluorescence polarization, translation initiation inhibitor project, primary screen (AID 2012)
[15] = Luminescence Cell-Based Dose Confirmation HTS to Identify Inhibitors of Platelet Dense Granule Release. [Related pubchem assays: 1663 (Primary HTS), 1678 (Summary of Project)]; type: functional
[16] = blockers of HIV-1 ZM109 envelope-driven cell-cell fusion – HeLa effector, CEM target cells, luciferase, cherry-pick, dose response (AID 652058); type: functional, cell-based;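 note: luciferase signal from HIV-1 Env mediated cell-cell fusion of effector and target cells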
[17] = ADP-Glo luciferase signal interference – biochemical, luminescence, cherry-picked samples, set 2, artefact control for CDK5 inhibitor project, dose response (AID 504546); type: functional, cell-based
[18] = viability loss in CEM21 cells – cell-based, CellTiter-Glo luminescence, cherry-picked, cytotoxicity control for viral fusion inhibitor project, dose response (AID 652042); type: functional;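 note: potency for signal decrease meaning cytotoxicity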
[19] = general cell-killing toxicity readout – plate reader, dry powder samples, cytotoxicity control for PAX8 inhibitor project, dose response (AID 743021); type: functional, cell-based
[20] = off-target signal loss in HeLa-CEM21 co-culture – HeLa F-luc CTL cells, cherry-picked, counter-screen for HIV-1 Env fusion inhibitor project, dose response (AID 652040); type: functional, cell-based;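 note: potency for signal decrease marking cytotoxic or nonspecific inhibition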
[21] = blockers of HIV-1 envelope-mediated cell-cell fusion – cherry-pick, dose response (AID 652057); type: functional, cell-based
[22] = HIV-1 AD8 envelope cell-cell fusion blockers – cherry-pick, dose response (AID 652062); type: functional, cell-based;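 note: luciferase signal from cell-cell fusion driven by HIV-1 clade B AD8 Env; potency is for inhibitors of fusion seen as a drop in luminescence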
[23] = target: T4, Voltage-gated N-type calcium channel alpha-1B subunit/Amyloid beta A4 precursor protein-binding family A member 1 (Homo sapiens, UniProt Q00975+Q02410); test: disruptors of Mint-PDZ/N-type channel peptide interaction – biochemical, HTRF, set 2, SAR follow-up (AID 434980); type: functional
T4 sequence (Q00975 whole entry): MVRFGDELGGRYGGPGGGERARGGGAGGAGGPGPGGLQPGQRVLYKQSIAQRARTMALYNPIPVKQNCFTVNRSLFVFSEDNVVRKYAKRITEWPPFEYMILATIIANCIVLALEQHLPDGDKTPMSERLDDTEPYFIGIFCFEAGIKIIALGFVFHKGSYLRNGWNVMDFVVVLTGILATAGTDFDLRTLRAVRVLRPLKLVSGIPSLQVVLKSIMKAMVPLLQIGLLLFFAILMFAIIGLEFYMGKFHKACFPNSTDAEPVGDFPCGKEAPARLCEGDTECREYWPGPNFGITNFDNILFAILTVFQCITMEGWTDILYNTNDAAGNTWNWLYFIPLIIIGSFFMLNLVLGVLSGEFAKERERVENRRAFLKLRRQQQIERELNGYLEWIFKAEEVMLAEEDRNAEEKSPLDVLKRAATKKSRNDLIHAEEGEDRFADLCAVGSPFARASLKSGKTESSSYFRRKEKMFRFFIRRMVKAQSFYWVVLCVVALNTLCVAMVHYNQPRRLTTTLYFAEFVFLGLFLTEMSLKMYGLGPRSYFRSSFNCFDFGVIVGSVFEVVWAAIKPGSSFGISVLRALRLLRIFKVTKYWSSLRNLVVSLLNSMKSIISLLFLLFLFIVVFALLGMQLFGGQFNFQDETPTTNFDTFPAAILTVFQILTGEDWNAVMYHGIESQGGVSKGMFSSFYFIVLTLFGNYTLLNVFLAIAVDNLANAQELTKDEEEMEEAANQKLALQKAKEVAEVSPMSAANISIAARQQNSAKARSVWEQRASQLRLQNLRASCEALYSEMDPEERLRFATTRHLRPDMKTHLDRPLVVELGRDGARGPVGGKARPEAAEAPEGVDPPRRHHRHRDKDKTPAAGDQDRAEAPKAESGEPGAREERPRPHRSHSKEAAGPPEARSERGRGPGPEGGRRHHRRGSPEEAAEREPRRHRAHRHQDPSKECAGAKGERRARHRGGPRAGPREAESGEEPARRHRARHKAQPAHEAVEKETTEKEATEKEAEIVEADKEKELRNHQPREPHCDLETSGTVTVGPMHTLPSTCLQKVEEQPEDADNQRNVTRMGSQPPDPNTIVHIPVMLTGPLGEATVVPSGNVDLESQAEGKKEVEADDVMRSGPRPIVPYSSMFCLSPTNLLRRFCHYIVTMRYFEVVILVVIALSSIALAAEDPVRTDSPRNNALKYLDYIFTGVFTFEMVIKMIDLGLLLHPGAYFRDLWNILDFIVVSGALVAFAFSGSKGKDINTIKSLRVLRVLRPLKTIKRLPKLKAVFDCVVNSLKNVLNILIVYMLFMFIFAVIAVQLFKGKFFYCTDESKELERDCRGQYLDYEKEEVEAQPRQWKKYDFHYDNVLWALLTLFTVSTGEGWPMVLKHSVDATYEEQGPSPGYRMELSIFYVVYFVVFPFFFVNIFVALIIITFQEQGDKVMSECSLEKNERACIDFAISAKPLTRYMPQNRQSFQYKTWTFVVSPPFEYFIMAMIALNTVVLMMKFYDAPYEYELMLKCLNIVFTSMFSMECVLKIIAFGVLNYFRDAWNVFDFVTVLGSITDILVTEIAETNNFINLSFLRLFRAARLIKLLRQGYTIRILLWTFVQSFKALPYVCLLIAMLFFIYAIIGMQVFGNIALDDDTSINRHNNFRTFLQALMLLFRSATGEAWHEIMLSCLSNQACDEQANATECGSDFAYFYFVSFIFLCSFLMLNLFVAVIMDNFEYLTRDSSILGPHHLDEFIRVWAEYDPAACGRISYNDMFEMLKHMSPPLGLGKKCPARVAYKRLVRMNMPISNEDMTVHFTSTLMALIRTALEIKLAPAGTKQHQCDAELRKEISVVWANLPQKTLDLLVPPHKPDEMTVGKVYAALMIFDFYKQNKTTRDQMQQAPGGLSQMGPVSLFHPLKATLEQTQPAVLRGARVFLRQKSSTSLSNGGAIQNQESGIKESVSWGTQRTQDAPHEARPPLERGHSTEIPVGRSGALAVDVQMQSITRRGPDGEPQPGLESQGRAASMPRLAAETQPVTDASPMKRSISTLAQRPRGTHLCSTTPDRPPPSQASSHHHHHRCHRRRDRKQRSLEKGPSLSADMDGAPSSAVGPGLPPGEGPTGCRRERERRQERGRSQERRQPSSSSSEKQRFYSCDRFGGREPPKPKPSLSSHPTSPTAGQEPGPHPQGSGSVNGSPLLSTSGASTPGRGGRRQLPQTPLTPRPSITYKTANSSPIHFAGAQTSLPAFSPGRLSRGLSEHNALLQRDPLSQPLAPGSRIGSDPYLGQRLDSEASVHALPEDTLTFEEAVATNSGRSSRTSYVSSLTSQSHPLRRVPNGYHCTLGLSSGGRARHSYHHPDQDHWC
T4 sequence (Q02410 whole entry): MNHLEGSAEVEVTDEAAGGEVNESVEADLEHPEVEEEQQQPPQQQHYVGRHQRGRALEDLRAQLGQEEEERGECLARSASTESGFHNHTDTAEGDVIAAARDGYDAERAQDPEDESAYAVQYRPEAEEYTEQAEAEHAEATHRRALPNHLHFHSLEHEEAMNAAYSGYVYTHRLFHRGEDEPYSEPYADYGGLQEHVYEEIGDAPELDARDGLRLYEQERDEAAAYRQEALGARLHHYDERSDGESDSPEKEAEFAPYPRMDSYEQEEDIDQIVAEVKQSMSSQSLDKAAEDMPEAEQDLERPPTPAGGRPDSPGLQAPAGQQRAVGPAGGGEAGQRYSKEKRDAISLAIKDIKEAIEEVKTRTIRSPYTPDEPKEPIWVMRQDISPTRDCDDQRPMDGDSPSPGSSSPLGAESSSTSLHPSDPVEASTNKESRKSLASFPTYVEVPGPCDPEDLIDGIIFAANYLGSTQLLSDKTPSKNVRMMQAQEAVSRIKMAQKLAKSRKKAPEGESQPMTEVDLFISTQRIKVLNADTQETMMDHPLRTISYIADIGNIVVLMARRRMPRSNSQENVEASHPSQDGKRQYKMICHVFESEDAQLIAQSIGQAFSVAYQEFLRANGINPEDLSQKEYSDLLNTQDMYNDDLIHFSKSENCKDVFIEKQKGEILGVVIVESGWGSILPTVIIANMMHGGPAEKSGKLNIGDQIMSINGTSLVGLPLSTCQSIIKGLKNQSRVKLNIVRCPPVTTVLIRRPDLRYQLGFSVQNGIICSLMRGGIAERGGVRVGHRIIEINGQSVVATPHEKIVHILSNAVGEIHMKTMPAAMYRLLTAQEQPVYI

[24] = target: T4, Voltage-gated N-type calcium channel alpha-1B subunit/Amyloid beta A4 precursor protein-binding family A member 1; test: disruptors of Mint-PDZ/N-type channel peptide interaction – biochemical, HTRF, SAR follow-up (AID 2489); type: functional
Cytochrome P450 2C9 = Cytochrome P450 2C9 (Homo sapiens, UniProt P11712); conditions: Potency
Cytochrome P450 2D6 = Cytochrome P450 2D6 (Homo sapiens, UniProt P10635); test: qHTS Assay for Inhibitors and Substrates of Cytochrome P450 2D6. [Related pubchem assays: 410 ]; type: ADME; conditions: read-out: Potency
INS1 = test: INS-1E survival protection against cytokine death – cell-based, luminescence, retest, dose response (AID 449756); type: functional; conditions: Rattus norvegicus;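 note: cell death triggered by IL-1 beta plus TNF-alpha plus IFN-gamma mixture; protective hits raise ATP signal compared with cytokine alone wells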
[25] = NIH3T3 cell viability loss – ATP luminescence, mouse fibroblasts, counter-screen, dose response (AID 2010); type: functional, cell-based;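 note: cells exposed to compound for about 90 hours before reading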
[26] = target: Serine/threonine-protein phosphatase PP1-alpha catalytic subunit (Homo sapiens, UniProt P62136); test: inhibition of protein phosphatase 1 activity – biochemical, fluorescence, dose response (AID 2403);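 note: phosphatase turnover of OMFP into fluorescent 3-O-methylfluorescein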
Serine/threonine-protein phosphatase PP1-alpha catalytic subunit, sequence (P62136 whole entry): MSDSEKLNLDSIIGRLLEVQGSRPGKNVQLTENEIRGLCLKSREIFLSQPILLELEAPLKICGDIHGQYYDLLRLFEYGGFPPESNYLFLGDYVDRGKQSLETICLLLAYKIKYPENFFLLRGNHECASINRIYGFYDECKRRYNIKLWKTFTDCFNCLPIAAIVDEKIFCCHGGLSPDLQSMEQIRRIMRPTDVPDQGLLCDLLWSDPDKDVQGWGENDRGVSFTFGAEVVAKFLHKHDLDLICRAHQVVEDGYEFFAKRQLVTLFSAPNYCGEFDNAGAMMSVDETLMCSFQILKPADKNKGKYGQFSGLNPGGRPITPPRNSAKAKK

[27] = target: Serine/threonine-protein phosphatase (Homo sapiens, UniProt Q9BPW0); test: Counterscreen for inhibitors of PP1: fluorescence-based biochemical high throughput dose response assay to identify inhibitors of Protein Phosphatase 5 (PP5). [Related pubchem assays: 2034 (Summary (PP5 inhibitors)), 1987 (PP5 inhibitors in singlate), 2235 (PP1 inhibitors in singlate)]
[28] = Trypanosoma cruzi growth suppression in host cells – NIH3T3 host cells, beta-gal luminescence, confirmation (AID 2044); type: functional, cell-based;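 note: intracellular parasites grown in NIH/3T3 mouse fibroblasts as host cells; luminescent beta-galactosidase reporter signal from transgenic T. cruzi replicating inside host cells; inhibitors lower the luminescence signal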
Aspartyl aminopeptidase = Aspartyl aminopeptidase (Plasmodium falciparum 3D7, UniProt Q8I2J3)
Procathepsin L = Procathepsin L (Homo sapiens, UniProt P07711)
[29] = target: Lysosomal acid glucosylceramidase (Homo sapiens, UniProt P04062); test: Dose response cell-based high throughput screening assay to identify enhancers of beta-glucosidase activity. [Related pubchem assays: 784 ]; type: functional
[30] = A549 cell cytotoxicity, dose response, cytotoxicity control, plate reader, cherry-pick, antagonist series (AID 743412); type: functional, cell-based
[31] = blockers of bursicon-stimulated LGR2 cAMP reporter – cell-based, HEK293, CRE-luciferase reporter, cherry pick, set 2, dose response (AID 743343); type: functional;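 note: transfected cells were stimulated with diluted bursicon conditioned medium after compound addition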
[32] = toxicity toward HepG2 liver cells – cell-based, plate reader, cherry-pick, antagonist series, cytotoxicity control, dose response (AID 743416); type: functional
[33] = A Cell Based Secondary Assay To Explore Cytotoxicity of Compounds that Sensitize Mycobacterium Tuberculosis to Beta-Lactam Antibiotics.; type: functional
[34] = target: T5, Microphthalmia-associated transcription factor (Homo sapiens, UniProt O75030); test: reducers of TRPM1 reporter luminescence, concentration series – cell-based, SK-MEL-5, cherry-picked, set 3, MITF inhibitor project, dose response (AID 493073); type: functional;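 note: SK-MEL-5 melanoma cells with luciferase driven by the MITF target TRPM1 promoter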
T5 sequence (O75030 whole entry): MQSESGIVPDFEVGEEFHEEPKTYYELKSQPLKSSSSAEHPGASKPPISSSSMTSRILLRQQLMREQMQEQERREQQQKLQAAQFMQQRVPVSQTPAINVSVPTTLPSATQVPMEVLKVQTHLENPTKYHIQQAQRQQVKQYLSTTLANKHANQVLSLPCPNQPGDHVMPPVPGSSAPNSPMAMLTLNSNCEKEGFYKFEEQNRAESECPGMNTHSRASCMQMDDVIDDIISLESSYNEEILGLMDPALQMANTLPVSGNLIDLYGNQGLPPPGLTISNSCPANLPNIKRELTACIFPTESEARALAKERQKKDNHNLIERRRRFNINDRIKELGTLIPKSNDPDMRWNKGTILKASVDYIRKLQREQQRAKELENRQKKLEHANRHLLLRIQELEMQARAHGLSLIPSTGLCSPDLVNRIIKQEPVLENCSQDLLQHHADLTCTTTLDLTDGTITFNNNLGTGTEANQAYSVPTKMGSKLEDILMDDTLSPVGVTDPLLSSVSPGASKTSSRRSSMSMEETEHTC

[35] = blockade of melanocortin 4 receptor signaling – cell-based, plate reader, cherry pick, counter-screen for LGR2 antagonist project, dose response (AID 743444); type: functional;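 note: transfected HEK 293 cells stimulated with alpha-MSH peptide; potency of inhibitors of the alpha-MSH evoked signal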
Paired box protein Pax-8 = Paired box protein Pax-8 (Homo sapiens, UniProt Q06710); test: PAX8 transcriptional activity inhibition in RMG-I – RMG-I cells, luciferase, cherry-pick, dose response (AID 687027); type: functional, cell-based;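 note: luciferase reporter driven by Pax8 target thyroperoxidase promoter measured by SteadyGlo luminescence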
[36] = viability loss in HEK293 cells – cell-based, plate reader, cherry-picked samples, cytotoxicity control, dose response (AID 743446); type: functional

Cc1sc(NC(=O)c2ccco2)nc1-c1ccc2c(c1)CC(C)N2C(=O)C1CC1 (stereo not given)
EC50 [1]: 7.02 µM (active)
EC50 [2]: 30.2 µM (inactive)
EC50 [3]: 7.22 µM (active)

Cc1cc(C)nc(N(C#N)Cc2cccc([N+](=O)[O-])c2)n1
AC50 [4]: 4.72 µM (active)

Cc1nsc(N)c1C(=O)O
EC50 [5]: > 55.7 µM (not active)
EC50 [6]: > 55.7 µM (not active)

COc1ccccc1CNC(=O)C1(NC(=O)Nc2ccc(C)cc2)CCCCC1
EC50 [7]: 37.3 µM (active)

O=C(NNc1c2ccccc2nc2ccccc12)c1ccc(O)cc1O
IC50 [8]: > 50 µM (not active)
IC50 [9]: 13.3 µM (active)
AC50 [10]: 0.062 µM (active)
EC50 (Streptokinase A): > 150 µM (not active)
IC50 [11]: > 50 µM (not active)
EC50 (Streptococcus): 23.7 µM (active)
EC50 [12]: 2.59 µM (active)
IC50 (Nonstructural protein 1): 32.1 µM (active)

COC(=O)c1c(NC(=O)/C=C/c2ccco2)sc2c1CCC2
IC50 [13]: > 100 µM (inactive)
IC50 [14]: 50.4 µM (active)

COc1ccc(C(=O)O/N=C(\N)c2ccccn2)cc1
EC50 [15]: 0.962 µM (active)
AC50 [16]: 19.4 µM (active)
AC50 [17]: 19.8 µM (active)
AC50 [18]: 21.6 µM (active)
AC50 [19]: 30 µM (active)
AC50 [20]: 7.65 µM (active)
AC50 [21]: 2.26 µM (active)
AC50 [22]: 11.9 µM (active)

COc1ccccc1CCNC(=O)c1cc(-c2ccco2)nc2ccccc12
IC50 [23]: 25.8 µM (active)
IC50 [24]: > 56.8 µM (inactive)

Clc1nc(NCCc2ccccc2)c2ncn(-c3ccccc3)c2n1
AC50 (Cytochrome P450 2C9): 7.94 µM (inconclusive)
AC50 (Cytochrome P450 2D6): 3.98 µM (inconclusive)

COc1ccc(Sc2nc(-c3ccccn3)ncc2OC)cc1
AC50 (INS1): 5.13 µM (active)
EC50 [25]: > 60 µM (inconclusive)
IC50 [26]: 6.04 µM (active)
IC50 [27]: > 67 µM (not active)
EC50 [28]: 1.9 µM (active)

COC(=O)CN(n1cnnc1)S(=O)(=O)c1ccccc1
IC50 (Aspartyl aminopeptidase): 0.497 µM (active)
IC50 (Procathepsin L): > 59.6 µM (not active)

CCOC(=O)C1(Cc2ccc(O)cc2)NC(c2ccccc2F)C2C(=O)N(C)C(=O)C21 (stereo not given)
EC50 [29]: > 50 µM (not active)

Cn1nnnc1Sc1ncnc2scc(-c3cccc(F)c3)c12
AC50 [30]: 7.53 µM (active)
AC50 [31]: 6.24 µM (active)
AC50 [32]: 6.73 µM (active)
CC50 [33]: 17.6 µM (active)
AC50 [34]: 5.98 µM (active)
AC50 [35]: 12 µM (active)
AC50 (Paired box protein Pax-8): 2.64 µM (active)
AC50 [36]: 6.26 µM (active)
